pIC50: −log10 of the molar value.
Columns and labels:
human plasma = experiment: determination of in-vitro anticoagulant effect in human plasma (APTT); assay type: biochemical; settings: healthy human plasma, 37°C for 3 min
Procedure: After centrifugation, the plasma sample was pipetted and frozen (-80°C) for later use.
A proper amount of a compound was weighed and prepared into a 10-100 mM stock solution using 100% of DMSO (the specific concentration of the stock solution was determined based on the properties of the compound); and then working solutions with various concentrations (specifically: 1 µM, 3 µM and 10 µM, respectively) were prepared from the stock solution using the healthy human plasma as a solution and thoroughly mixed. After incubation at 37°C for 3 min, the sample was placed on an instrument (model: CS-2000I) to determine APTT.
GraphPad Prism software was used for analysis to calculate the APTT prolongation rate at each concentration.

human FXla = human FXla (Homo sapiens, UniProt P03951); experiment: Activity assay of coagulation factor FXla inhibitor (S-2366 substrate, OD405nm); assay type: biochemical; settings: 5 concentrations 200 nM to 0.32 nM, 0.8 nM (2X) human FXla working solution
From the text: X: log value of compound concentration; Y: inhibition rate (%).

[1] = Effect of continuous in-vivo administration on general condition and food intake of rats; settings: for Food intake (g, mean±SD) / food intake compared with the blank group: 500 mg/kg PO once a day for 14 days, within 24 hours after the last administration
From the text: Each group had 10 rats, equally distributed by gender. The rats received drug administrations via oral gavage once a day for 14 consecutive days, following the administration regimen outlined in the table below. The blank group was given an equal volume of a vehicle. […] Table 4 Continuous administration regimen

Chain of human FXla (P03951 388-625 limits assumed): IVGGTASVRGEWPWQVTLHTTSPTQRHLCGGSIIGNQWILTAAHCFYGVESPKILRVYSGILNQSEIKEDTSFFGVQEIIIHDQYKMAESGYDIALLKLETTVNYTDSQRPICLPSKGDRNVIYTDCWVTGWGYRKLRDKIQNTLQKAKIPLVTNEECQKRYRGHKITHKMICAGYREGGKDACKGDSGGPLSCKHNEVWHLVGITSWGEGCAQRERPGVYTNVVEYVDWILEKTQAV
Chain of human FXla (P03951 19-387 partner limits assumed): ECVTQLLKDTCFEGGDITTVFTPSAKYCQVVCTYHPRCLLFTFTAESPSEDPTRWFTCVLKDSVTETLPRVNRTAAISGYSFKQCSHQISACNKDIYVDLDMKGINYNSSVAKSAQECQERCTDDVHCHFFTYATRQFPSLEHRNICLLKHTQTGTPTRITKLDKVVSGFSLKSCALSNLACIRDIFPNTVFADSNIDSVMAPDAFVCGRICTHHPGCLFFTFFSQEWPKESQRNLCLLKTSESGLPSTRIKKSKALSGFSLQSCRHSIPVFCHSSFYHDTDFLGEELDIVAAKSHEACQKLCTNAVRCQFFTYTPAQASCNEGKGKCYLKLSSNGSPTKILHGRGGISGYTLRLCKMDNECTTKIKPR

Compound	APTT prolongation rate (%) (human plasma; 1 µM)	APTT prolongation rate (%) (human plasma; 3 µM)	APTT prolongation rate (%) (human plasma; 10 µM)	pIC50 (human FXla)	Food intake (g, mean±SD) [1] [g]	general condition of the rats ([1]; SD rats, 500 mg/kg PO once a day for 14 consecutive days)	food intake compared with the blank group ([1]; SD rats)
(S)-4-(2-(4-(5-chloro-2-(4-(trifluoromethyl)-1H-1,2,3-triazol-1-yl)phenyl)-5-methoxy-2-oxopyridin-1(2H)-yl)butanamido)-3,6-difluorobenzamide [Compound 14]	0.9	9.1	18.5				
CC[C@@H](C(=O)Nc1ccc(C(N)=O)cc1Cl)n1cc(OC)c(-c2cc(Cl)ccc2-n2cc(C(F)(F)F)nn2)cc1=O [Compound 16, (S)-3-chloro-4-(2-(4-(5-chloro-2-(4-(trifluoromethyl)-1H-1,2,3-triazol-1-yl)phenyl)-5-methoxy-2-oxopyridin-1(2H)-yl)butanamido)-benzamide]	7.0	11.7	26.8				
CC[C@@H](C(=O)Nc1c(Cl)cc(C(N)=O)cc1Cl)n1cc(OC)c(-c2cc(Cl)ccc2-n2cc(C(F)(F)F)nn2)cc1=O [Compound 15, (S)-3,5-dichloro-4-(2-(4-(5-chloro-2-(4-(trifluoromethyl)-1H-1,2,3-triazol-1-yl)phenyl)-5-methoxy-2-oxopyridin-1(2H)-yl)butanamido)benzamide]	24.2	30.0	51.1				
CC[C@@H](C(=O)Nc1ccc(C(=O)NC)c(Cl)c1)n1cc(OC)c(-c2cc(Cl)ccc2-n2cc(C(F)(F)F)nn2)cc1=O [Compound 3, (S)-2-chloro-4-(2-(4-(5-chloro-2-(4-(trifluoromethyl)-1H-1,2,3-triazol-1-yl)phenyl)-5-methoxy-2-oxopyridin-1(2H)-yl)butanamido)-N-methylbenzamide]	48.2	66.5	92.0				
CC[C@@H](C(=O)Nc1ccc(C(=O)NC)c(OC)c1)n1cc(OC)c(-c2cc(Cl)ccc2-n2cc(C(F)(F)F)nn2)cc1=O [Compound 18, (S)-4-(2-(4-(5-chloro-2-(4-(trifluoromethyl)-1H-1,2,3-triazol-1-yl)phenyl)-5-methoxy-2-oxopyridin-1(2H)-yl)butanamido)-2-methoxy-N-methylbenzamide]	33.2	46.1	90.6	8.04			
CC[C@@H](C(=O)Nc1ccc(C(N)=O)c(Cl)c1)n1cc(OC)c(-c2cc(Cl)ccc2-n2cc(Cl)nn2)cc1=O [Compound 10, (S)-2-chloro-4-(2-(4-(5-chloro-2-(4-chloro-1H-1,2,3-triazol-1-yl)phenyl)-5-methoxy-2-oxopyridin-1(2H)-yl)butanamido)benzamide]	38.6	56.0	98.9				
CC[C@@H](C(=O)Nc1ccc(C(=O)OC)c(Cl)c1)n1cc(OC)c(-c2cc(Cl)ccc2-n2cc(C(F)(F)F)nn2)cc1=O [Compound 4, Methyl (S)-2-chloro-4-(2-(4-(5-chloro-2-(4-(trifluoromethyl)-1H-1,2,3-triazol-1-yl)phenyl)-5-methoxy-2-oxopyridin-1(2H)-yl)butanamido)benzoate]	31.5	54.3	102.6				
CC[C@@H](C(=O)Nc1ccc(C(N)=O)c(F)c1)n1cc(OC)c(-c2cc(Cl)ccc2-n2cc(C(F)(F)F)nn2)cc1=O [Comparative example 1, (S)-4-(2-(4-(5-chloro-2-(4-(trifluoromethyl)-1H-1,2,3-triazol-1-yl)phenyl)-5-methoxy-2-oxopyridin-1(2H)-yl)butanamido)-2-fluorobenzamide, reference compound]					24.98 ± 0.92	piloerection and hypoactivity were found in 1/3 or more of the rats	significantly reduced food intake
CC[C@@H](C(=O)Nc1ccc(C(=O)NC)cc1F)n1cc(OC)c(-c2cc(Cl)ccc2-n2cc(C(F)(F)F)nn2)cc1=O [Compound 19, (S)-4-(2-(4-(5-chloro-2-(4-(trifluoromethyl)-1H-1,2,3-triazol-1-yl)phenyl)-5-methoxy-2-oxopyridin-1(2H)-yl)butanamido)-3-fluoro-N-methylbenzamide]	24.2	44.0	77.1				
[2H]C([2H])([2H])Oc1cn([C@@H](CC)C(=O)Nc2ccc(C(N)=O)c(F)c2)c(=O)cc1-c1cc(Cl)ccc1-n1cc(C(F)(F)F)nn1 [Compound 21, (S)-4-(2-(4-(5-chloro-2-(4-(trifluoromethyl)-1H-1,2,3-triazol-1-yl)phenyl)-5-(methoxy-d3)-2-oxopyridin-1(2H)-yl)butanamido)-2-fluorobenzamide]					27.08 ± 1.23		essentially the same food intake as the blank group
[2H]C([2H])([2H])Oc1cn([C@@H](CC)C(=O)Nc2ccc(C(N)=O)cc2F)c(=O)cc1-c1cc(Cl)ccc1-n1cc(C(F)(F)F)nn1 [Compound 23, (S)-4-(2-(4-(5-chloro-2-(4-(trifluoromethyl)-1H-1,2,3-triazol-1-yl)phenyl)-5-(methoxy-d3)-2-oxopyridin-1(2H)-yl)butanamide)-3-fluorobenzamide]	48.8	81.2	168.0				
CC[C@@H](C(=O)Nc1ccc(C(N)=O)c(F)c1F)n1cc(OC)c(-c2cc(Cl)ccc2-n2cc(C(F)(F)F)nn2)cc1=O [Compound 12, (S)-4-(2-(4-(5-chloro-2-(4-(trifluoromethyl)-1H-1,2,3-triazol-1-yl)phenyl)-5-methoxy-2-oxopyridin-1(2H)-yl)butanamido)-2,3-difluorobenzamide]	23.2	33.5	81.1				
[2H]C([2H])([2H])Oc1cn([C@@H](CC)C(=O)Nc2ccc(C(=O)NC)cc2F)c(=O)cc1-c1cc(Cl)ccc1-n1cc(C(F)(F)F)nn1 [Compound 24, (S)-4-(2-(4-(5-chloro-2-(4-(trifluoromethyl)-1H-1,2,3-triazol-1-yl)phenyl)-5-(methoxy-d3)-2-oxopyridin-1(2H)-yl)butanamido)-3-fluoro-N-methylbenzamide]	35.1	73.2	132.5				
CC[C@@H](C(=O)Nc1ccc(C(N)=O)c(C(F)(F)F)c1)n1cc(OC)c(-c2cc(Cl)ccc2-n2cc(C(F)(F)F)nn2)cc1=O [Compound 7, (S)-4-(2-(4-(5-chloro-2-(4-(trifluoromethyl)-1H-1,2,3-triazol-1-yl)phenyl)-5-methoxy-2-oxopyridin-1(2H)-yl)butanamido)-2-(trifluoromethyl)benzamide]	37.9	52.4	73.4				
CC[C@@H](C(=O)Nc1ccc(C(N)=O)c(C(F)(F)F)c1)n1cc(OC)c(-c2cc(Cl)ccc2-n2cc(Cl)nn2)cc1=O [Compound 11, (S)-4-(2-(4-(5-chloro-2-(4-chloro-1H-1,2,3-triazol-1-yl)phenyl)-5-methoxy-2-oxopyridin-1(2H)-yl)butanamido)-2-(trifluoromethyl)benzamide]	18.7	26.9	42.0				
CC[C@@H](C(=O)Nc1cc(F)c(C(=O)NC)c(F)c1)n1cc(OC)c(-c2cc(Cl)ccc2-n2cc(C(F)(F)F)nn2)cc1=O [Compound 20, (S)-4-(2-(4-(5-chloro-2-(4-(trifluoromethyl)-1H-1,2,3-triazol-1-yl)phenyl)-5-methoxy-2-oxopyridin-1(2H)-yl)butanamido)-2,6-difluoro-N-methylbenzamide]	19.2	49.2	98.6				
[2H]C([2H])([2H])NC(=O)c1ccc(NC(=O)[C@@H](n2cc(OC([2H])([2H])[2H])c(-c3cc(Cl)ccc3-n3cc(C(F)(F)F)nn3)cc2=O)C([2H])([2H])C([2H])([2H])[2H])cc1F [Compound 30, (S)-4-(2-(4-(5-chloro-2-(4-(trifluoromethyl)-1H-1,2,3-triazol-1-yl)phenyl)-5-(methoxy-d3)-2-oxopyridin-1(2H)-yl)butanamido-3,3,4,4,4-d5)-2-fluoro-N-(methyl-d3)benzamide]	48.1	79.0	138.4				
CC[C@@H](C(=O)Nc1ccc(C(N)=O)c(C(N)=O)c1)n1cc(OC)c(-c2cc(Cl)ccc2-n2cc(C(F)(F)F)nn2)cc1=O [Compound 8, (S)-4-(2-(4-(5-chloro-2-(4-(trifluoromethyl)-1H-1,2,3-triazol-1-yl)phenyl)-5-methoxy-2-oxopyridin-1(2H)-yl)butanamido)phthalamide]	34.7	64.5	93.8				
